# According to article PMC4767141, “Discovery of Potent, Orally Bioavailable, Small-Molecule Inhibitors of WNT Signaling from a Cell-Based Pathway Screen” (Journal of Medicinal Chemistry, 2015):
# Experiments:
# A1 (h) = target: T1, A1 (h) (Homo sapiens, UniProt P30542); assay: CEREP binding panel; settings: antagonist radioligand, read-out: % Inhibition of Control Specific Binding
# T1 construct: purchased Millipore KinaseProfiler (kinases); Cerep (receptors and ion channels)
# A2A (h) = target: T2, A2A (h) (Homo sapiens, UniProt P29274); assay: CEREP binding panel; settings: agonist radioligand, read-out: % Inhibition of Control Specific Binding
# T2 construct: purchased Millipore KinaseProfiler (kinases); Cerep (receptors and ion channels)
# D2S (h) = target: T3, D2S (h) (Homo sapiens, UniProt P14416); assay: CEREP binding panel; settings: antagonist radioligand, read-out: % Inhibition of Control Specific Binding
# T3 construct: purchased Millipore KinaseProfiler (kinases); Cerep (receptors and ion channels)
# MC4 (h) = target: T4, MC4 (h) (Homo sapiens, UniProt P32245); assay: CEREP binding panel; settings: agonist radioligand, read-out: % Inhibition of Control Specific Binding
# T4 construct: purchased Millipore KinaseProfiler (kinases); Cerep (receptors and ion channels)
# M3 (h) = target: T5, M3 (h) (Homo sapiens, UniProt P20309); assay: CEREP binding panel; settings: antagonist radioligand, read-out: % Inhibition of Control Specific Binding
# T5 construct: purchased Millipore KinaseProfiler (kinases); Cerep (receptors and ion channels)
# Y1 (h) = target: T6, Y1 (h) (Homo sapiens, UniProt P25929); assay: CEREP binding panel; settings: agonist radioligand, read-out: % Inhibition of Control Specific Binding
# T6 construct: purchased Millipore KinaseProfiler (kinases); Cerep (receptors and ion channels)
# 5-HT1A (h) = target: T7, 5-HT1A (h) (Homo sapiens, UniProt P08908); assay: CEREP binding panel; settings: agonist radioligand, read-out: % Inhibition of Control Specific Binding
# T7 construct: purchased Millipore KinaseProfiler (kinases); Cerep (receptors and ion channels)
# T7 sequence (P08908 whole entry): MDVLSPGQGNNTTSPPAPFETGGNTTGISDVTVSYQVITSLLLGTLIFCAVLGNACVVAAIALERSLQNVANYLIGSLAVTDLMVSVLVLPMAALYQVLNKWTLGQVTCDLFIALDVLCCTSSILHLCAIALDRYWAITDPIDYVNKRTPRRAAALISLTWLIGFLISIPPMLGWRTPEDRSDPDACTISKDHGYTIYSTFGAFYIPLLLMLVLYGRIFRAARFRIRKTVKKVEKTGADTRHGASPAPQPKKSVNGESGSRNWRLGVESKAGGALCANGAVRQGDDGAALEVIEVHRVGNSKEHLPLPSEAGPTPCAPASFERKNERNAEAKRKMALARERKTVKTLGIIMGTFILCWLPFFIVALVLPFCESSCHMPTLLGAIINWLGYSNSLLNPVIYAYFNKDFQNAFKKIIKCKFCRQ
# 5-HT1B = target: T8, 5-HT1B (Rattus norvegicus, UniProt P28564); assay: CEREP binding panel; settings: antagonist radioligand, read-out: % Inhibition of Control Specific Binding
# T8 construct: purchased Millipore KinaseProfiler (kinases); Cerep (receptors and ion channels)
# sst (non-selective) = assay: CEREP binding panel; settings: 10 μM, agonist radioligand
# [1] = tested on: Ca2+ channel (L, verapamil site) (phenylalkylamine); assay: CEREP binding panel; settings: 10 μM, antagonist radioligand
# CDK2/CYCLINA = target: T9, CDK2/CYCLINA (Homo sapiens, UniProt P24941); assay: Millipore kinase panel; type: biochemical; settings: read-out: % Control
# T9 construct: purchased Millipore KinaseProfiler (kinases); Cerep (receptors and ion channels)
# DAPK1 = target: T10, DAPK1 (Homo sapiens, UniProt P53355); assay: Millipore kinase panel; type: biochemical; settings: read-out: % Control
# T10 construct: purchased Millipore KinaseProfiler (kinases); Cerep (receptors and ion channels)
# DAPK2 = target: T11, DAPK2 (Homo sapiens, UniProt Q9UIK4); assay: Millipore kinase panel; type: biochemical; settings: read-out: % Control
# T11 construct: purchased Millipore KinaseProfiler (kinases); Cerep (receptors and ion channels)
# EGFR = target: T12, EGFR (Homo sapiens, UniProt P00533); assay: Millipore kinase panel; type: biochemical; settings: read-out: % Control
# T12 construct: purchased Millipore KinaseProfiler (kinases); Cerep (receptors and ion channels)
# EPHA5 = target: T13, EPHA5 (Homo sapiens, UniProt P54756); assay: Millipore kinase panel; type: biochemical; settings: read-out: % Control
# T13 construct: purchased Millipore KinaseProfiler (kinases); Cerep (receptors and ion channels)
# T13 sequence (P54756 25-1037): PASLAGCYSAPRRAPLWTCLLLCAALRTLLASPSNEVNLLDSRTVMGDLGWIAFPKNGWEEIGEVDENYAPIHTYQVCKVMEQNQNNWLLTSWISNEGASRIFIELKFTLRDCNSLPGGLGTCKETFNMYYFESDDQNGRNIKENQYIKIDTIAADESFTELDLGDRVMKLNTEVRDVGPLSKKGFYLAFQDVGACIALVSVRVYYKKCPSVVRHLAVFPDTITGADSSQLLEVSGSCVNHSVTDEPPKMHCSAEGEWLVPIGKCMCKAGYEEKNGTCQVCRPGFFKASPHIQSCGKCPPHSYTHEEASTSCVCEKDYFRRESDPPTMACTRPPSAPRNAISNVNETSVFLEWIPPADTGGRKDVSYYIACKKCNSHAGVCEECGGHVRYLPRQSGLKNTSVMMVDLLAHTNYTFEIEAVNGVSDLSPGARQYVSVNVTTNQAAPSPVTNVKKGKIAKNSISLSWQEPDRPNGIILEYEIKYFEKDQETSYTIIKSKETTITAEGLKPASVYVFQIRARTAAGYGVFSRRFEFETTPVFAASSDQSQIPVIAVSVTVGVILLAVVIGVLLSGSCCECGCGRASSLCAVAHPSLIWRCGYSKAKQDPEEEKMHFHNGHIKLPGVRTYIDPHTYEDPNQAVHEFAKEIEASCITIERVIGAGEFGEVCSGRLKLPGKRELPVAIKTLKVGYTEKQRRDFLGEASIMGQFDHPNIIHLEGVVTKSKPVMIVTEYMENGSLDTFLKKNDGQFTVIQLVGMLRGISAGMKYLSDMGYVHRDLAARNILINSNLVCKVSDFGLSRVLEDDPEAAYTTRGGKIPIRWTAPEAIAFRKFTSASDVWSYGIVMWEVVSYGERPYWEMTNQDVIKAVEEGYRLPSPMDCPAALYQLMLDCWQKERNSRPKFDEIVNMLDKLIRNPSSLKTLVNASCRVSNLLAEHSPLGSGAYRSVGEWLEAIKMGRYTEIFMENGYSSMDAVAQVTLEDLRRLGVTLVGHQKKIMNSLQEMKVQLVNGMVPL
# EPHB1 = target: T14, EPHB1 (Homo sapiens, UniProt P54762); assay: Millipore kinase panel; type: biochemical; settings: read-out: % Control
# T14 construct: purchased Millipore KinaseProfiler (kinases); Cerep (receptors and ion channels)
# FLT3 = target: T15, FLT3 (Homo sapiens, UniProt P36888); assay: Millipore kinase panel; type: biochemical; settings: read-out: % Control
# T15 construct: purchased Millipore KinaseProfiler (kinases); Cerep (receptors and ion channels)
# HIPK1 = target: T16, HIPK1 (Homo sapiens, UniProt Q86Z02); assay: Millipore kinase panel; type: biochemical; settings: read-out: % Control
# T16 construct: purchased Millipore KinaseProfiler (kinases); Cerep (receptors and ion channels)
# IRAK4 = target: T17, IRAK4 (Homo sapiens, UniProt Q9NWZ3); assay: Millipore kinase panel; type: biochemical; settings: read-out: % Control
# T17 construct: purchased Millipore KinaseProfiler (kinases); Cerep (receptors and ion channels)
# JAK3 = target: T18, JAK3 (Homo sapiens, UniProt P52333); assay: Millipore kinase panel; type: biochemical; settings: read-out: % Control
# T18 construct: purchased Millipore KinaseProfiler (kinases); Cerep (receptors and ion channels)
# T18 sequence (P52333 whole entry): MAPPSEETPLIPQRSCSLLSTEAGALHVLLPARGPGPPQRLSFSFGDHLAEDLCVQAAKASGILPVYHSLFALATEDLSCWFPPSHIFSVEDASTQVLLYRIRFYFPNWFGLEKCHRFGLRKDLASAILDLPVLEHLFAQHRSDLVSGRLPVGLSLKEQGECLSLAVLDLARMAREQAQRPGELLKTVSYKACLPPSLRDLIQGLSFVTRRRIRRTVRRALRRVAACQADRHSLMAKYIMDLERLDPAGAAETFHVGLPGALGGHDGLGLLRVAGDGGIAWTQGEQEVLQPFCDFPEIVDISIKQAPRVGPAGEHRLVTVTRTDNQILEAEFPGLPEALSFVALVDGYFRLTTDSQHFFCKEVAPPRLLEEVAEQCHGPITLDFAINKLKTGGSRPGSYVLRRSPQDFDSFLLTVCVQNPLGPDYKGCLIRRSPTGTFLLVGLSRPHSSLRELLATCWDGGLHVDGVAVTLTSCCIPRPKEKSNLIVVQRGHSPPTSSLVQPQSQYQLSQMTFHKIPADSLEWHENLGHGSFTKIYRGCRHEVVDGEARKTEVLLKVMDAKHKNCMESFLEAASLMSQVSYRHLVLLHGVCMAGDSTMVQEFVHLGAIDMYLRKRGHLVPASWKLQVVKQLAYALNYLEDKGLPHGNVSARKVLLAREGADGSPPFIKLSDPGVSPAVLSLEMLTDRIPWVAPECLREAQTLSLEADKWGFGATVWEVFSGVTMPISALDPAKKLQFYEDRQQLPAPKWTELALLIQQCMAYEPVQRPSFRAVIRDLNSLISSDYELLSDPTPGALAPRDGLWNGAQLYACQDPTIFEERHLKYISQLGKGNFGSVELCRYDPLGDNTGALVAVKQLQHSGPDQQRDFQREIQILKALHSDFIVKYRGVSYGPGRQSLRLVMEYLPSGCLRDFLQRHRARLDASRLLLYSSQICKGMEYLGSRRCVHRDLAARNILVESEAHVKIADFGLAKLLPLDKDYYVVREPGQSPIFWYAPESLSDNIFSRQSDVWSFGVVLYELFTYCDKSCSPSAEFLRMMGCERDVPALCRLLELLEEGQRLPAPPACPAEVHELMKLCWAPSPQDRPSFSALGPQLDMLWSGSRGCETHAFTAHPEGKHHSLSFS
# JNK1ALPHA1 = target: T19, JNK1ALPHA1 (Homo sapiens, UniProt P45983); assay: Millipore kinase panel; type: biochemical; settings: read-out: % Control
# T19 construct: purchased Millipore KinaseProfiler (kinases); Cerep (receptors and ion channels)
# MET = target: T20, MET (Homo sapiens, UniProt P08581); assay: Millipore kinase panel; type: biochemical; settings: read-out: % Control
# T20 construct: purchased Millipore KinaseProfiler (kinases); Cerep (receptors and ion channels)
# MRCKALPHA = target: T21, MRCKALPHA (Homo sapiens, UniProt Q5VT25); assay: Millipore kinase panel; type: biochemical; settings: read-out: % Control
# T21 construct: purchased Millipore KinaseProfiler (kinases); Cerep (receptors and ion channels)
# MST3 = target: T22, MST3 (Homo sapiens, UniProt Q9Y6E0); assay: Millipore kinase panel; type: biochemical; settings: read-out: % Control
# T22 construct: purchased Millipore KinaseProfiler (kinases); Cerep (receptors and ion channels)
# NEK2 = target: T23, NEK2 (Homo sapiens, UniProt P51955); assay: Millipore kinase panel; type: biochemical; settings: read-out: % Control
# T23 construct: purchased Millipore KinaseProfiler (kinases); Cerep (receptors and ion channels)
# NEK7 = target: T24, NEK7 (Homo sapiens, UniProt Q8TDX7); assay: Millipore kinase panel; type: biochemical; settings: read-out: % Control
# T24 construct: purchased Millipore KinaseProfiler (kinases); Cerep (receptors and ion channels)
# NLK = target: T25, NLK (Homo sapiens, UniProt Q9UBE8); assay: Millipore kinase panel; type: biochemical; settings: read-out: % Control
# T25 construct: purchased Millipore KinaseProfiler (kinases); Cerep (receptors and ion channels)
# PKG1ALPHA = target: T26, PKG1ALPHA (Homo sapiens, UniProt Q13976); assay: Millipore kinase panel; type: biochemical; settings: read-out: % Control
# T26 construct: purchased Millipore KinaseProfiler (kinases); Cerep (receptors and ion channels)
# PKD2 = target: T27, PKD2 (Homo sapiens, UniProt Q9BZL6); assay: Millipore kinase panel; type: biochemical; settings: read-out: % Control
# T27 construct: purchased Millipore KinaseProfiler (kinases); Cerep (receptors and ion channels)
# PRAK = target: T28, PRAK (Homo sapiens, UniProt Q8IW41); assay: Millipore kinase panel; type: biochemical; settings: read-out: % Control
# T28 construct: purchased Millipore KinaseProfiler (kinases); Cerep (receptors and ion channels)
# PRKX = target: T29, PRKX (Homo sapiens, UniProt P51817); assay: Millipore kinase panel; type: biochemical; settings: read-out: % Control
# T29 construct: purchased Millipore KinaseProfiler (kinases); Cerep (receptors and ion channels)
# CRAF = target: T30, CRAF (Homo sapiens, UniProt P04049); assay: Millipore kinase panel; type: biochemical; settings: read-out: % Control
# T30 construct: purchased Millipore KinaseProfiler (kinases); Cerep (receptors and ion channels)
# RIPK2 = target: T31, RIPK2 (Homo sapiens, UniProt O43353); assay: Millipore kinase panel; type: biochemical; settings: read-out: % Control
# T31 construct: purchased Millipore KinaseProfiler (kinases); Cerep (receptors and ion channels)
# RSK2 = target: T32, RSK2 (Homo sapiens, UniProt P51812); assay: Millipore kinase panel; type: biochemical; settings: read-out: % Control
# T32 construct: purchased Millipore KinaseProfiler (kinases); Cerep (receptors and ion channels)
# SAPK2A = target: T33, SAPK2A (Homo sapiens, UniProt Q16539); assay: Millipore kinase panel; type: biochemical; settings: read-out: % Control
# T33 construct: purchased Millipore KinaseProfiler (kinases); Cerep (receptors and ion channels)
# T33 sequence (Q16539 whole entry): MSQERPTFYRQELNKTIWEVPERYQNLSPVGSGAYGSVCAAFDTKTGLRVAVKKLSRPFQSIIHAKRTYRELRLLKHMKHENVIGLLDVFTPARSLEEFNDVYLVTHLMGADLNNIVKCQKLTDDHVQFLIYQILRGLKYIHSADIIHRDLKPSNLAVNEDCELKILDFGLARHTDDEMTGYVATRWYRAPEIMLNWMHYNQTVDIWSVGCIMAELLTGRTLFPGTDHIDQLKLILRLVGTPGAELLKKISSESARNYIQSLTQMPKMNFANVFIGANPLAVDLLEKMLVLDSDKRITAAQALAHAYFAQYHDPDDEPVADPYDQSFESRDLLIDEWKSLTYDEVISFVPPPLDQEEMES
# ZAP-70 = target: T34, ZAP-70 (Homo sapiens, UniProt P43403); assay: Millipore kinase panel; type: biochemical; settings: read-out: % Control
# T34 construct: purchased Millipore KinaseProfiler (kinases); Cerep (receptors and ion channels)
# ZIPK = target: T35, ZIPK (Homo sapiens, UniProt O43293); assay: Millipore kinase panel; type: biochemical; settings: read-out: % Control
# T35 construct: purchased Millipore KinaseProfiler (kinases); Cerep (receptors and ion channels)
# T35 sequence (O43293 whole entry): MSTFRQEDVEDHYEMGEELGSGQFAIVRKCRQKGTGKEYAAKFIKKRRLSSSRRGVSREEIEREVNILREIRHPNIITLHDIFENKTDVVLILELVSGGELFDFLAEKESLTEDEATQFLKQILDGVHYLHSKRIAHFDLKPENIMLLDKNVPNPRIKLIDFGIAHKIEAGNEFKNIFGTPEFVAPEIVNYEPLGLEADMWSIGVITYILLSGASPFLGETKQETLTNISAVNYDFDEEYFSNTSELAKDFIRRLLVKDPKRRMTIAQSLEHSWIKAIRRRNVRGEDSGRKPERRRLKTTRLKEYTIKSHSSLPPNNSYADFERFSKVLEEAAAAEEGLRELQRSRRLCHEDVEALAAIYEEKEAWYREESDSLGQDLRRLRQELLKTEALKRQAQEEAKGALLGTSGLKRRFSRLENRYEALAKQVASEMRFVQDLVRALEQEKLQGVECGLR
# GRK5 = target: T36, GRK5 (Homo sapiens, UniProt P34947); assay: Millipore kinase panel; type: biochemical; settings: read-out: % Control
# T36 construct: purchased Millipore KinaseProfiler (kinases); Cerep (receptors and ion channels)
# HASPIN = target: T37, HASPIN (Homo sapiens, UniProt Q8TF76); assay: Millipore kinase panel; type: biochemical; settings: read-out: % Control
# T37 construct: purchased Millipore KinaseProfiler (kinases); Cerep (receptors and ion channels)
# TAO3 = target: T38, TAO3 (Homo sapiens, UniProt Q9H2K8); assay: Millipore kinase panel; type: biochemical; settings: read-out: % Control
# T38 construct: purchased Millipore KinaseProfiler (kinases); Cerep (receptors and ion channels)
# TAO1 = target: T39, TAO1 (Homo sapiens, UniProt Q7L7X3); assay: Millipore kinase panel; type: biochemical; settings: read-out: % Control
# T39 construct: purchased Millipore KinaseProfiler (kinases); Cerep (receptors and ion channels)
# IR, ACTIVATED = target: T40, IR, ACTIVATED (Homo sapiens, UniProt P06213); assay: Millipore kinase panel; type: biochemical; settings: read-out: % Control
# T40 construct: purchased Millipore KinaseProfiler (kinases); Cerep (receptors and ion channels)
# PRKAA1 = target: T41, PRKAA1 (Homo sapiens, UniProt Q13131); assay: Millipore kinase panel; type: biochemical; settings: read-out: % Control
# T41 construct: purchased Millipore KinaseProfiler (kinases); Cerep (receptors and ion channels)
# T41 sequence (Q13131 whole entry): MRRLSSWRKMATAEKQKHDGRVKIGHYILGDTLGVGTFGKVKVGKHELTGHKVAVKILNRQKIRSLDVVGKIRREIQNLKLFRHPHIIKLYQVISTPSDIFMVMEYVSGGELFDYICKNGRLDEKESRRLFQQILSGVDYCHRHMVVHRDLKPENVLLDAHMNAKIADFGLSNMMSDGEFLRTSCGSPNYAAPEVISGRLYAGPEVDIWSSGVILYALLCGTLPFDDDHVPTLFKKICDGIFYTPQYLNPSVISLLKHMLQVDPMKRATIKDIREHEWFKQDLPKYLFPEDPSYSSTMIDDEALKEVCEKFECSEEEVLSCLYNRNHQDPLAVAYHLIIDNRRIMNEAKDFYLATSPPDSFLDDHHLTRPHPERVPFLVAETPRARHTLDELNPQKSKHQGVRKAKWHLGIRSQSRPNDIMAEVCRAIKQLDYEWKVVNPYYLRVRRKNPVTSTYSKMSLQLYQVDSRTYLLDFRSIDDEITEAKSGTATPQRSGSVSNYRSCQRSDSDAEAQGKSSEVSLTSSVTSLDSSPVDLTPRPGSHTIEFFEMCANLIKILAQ
# T41 sequence (Q9Y478 whole entry partner): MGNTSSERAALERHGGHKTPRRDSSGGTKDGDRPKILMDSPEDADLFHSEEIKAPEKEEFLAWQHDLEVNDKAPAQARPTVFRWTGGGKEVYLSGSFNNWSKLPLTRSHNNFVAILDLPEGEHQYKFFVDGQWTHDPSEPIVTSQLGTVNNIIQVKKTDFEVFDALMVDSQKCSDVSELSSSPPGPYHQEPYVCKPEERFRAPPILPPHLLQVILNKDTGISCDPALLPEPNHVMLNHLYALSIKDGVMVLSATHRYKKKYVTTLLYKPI
# T41 sequence (P54619 whole entry partner): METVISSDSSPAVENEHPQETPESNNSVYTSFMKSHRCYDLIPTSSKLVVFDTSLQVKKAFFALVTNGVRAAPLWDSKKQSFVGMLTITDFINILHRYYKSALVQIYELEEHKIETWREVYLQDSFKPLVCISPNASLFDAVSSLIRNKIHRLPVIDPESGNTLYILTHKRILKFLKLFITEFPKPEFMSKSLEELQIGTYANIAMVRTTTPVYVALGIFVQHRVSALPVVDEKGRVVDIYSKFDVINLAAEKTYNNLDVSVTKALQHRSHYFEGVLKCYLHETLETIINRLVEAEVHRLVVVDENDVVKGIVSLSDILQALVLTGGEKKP
# AURKB = target: T42, AURKB (Homo sapiens, UniProt Q96GD4); assay: Millipore kinase panel; type: biochemical; settings: read-out: % Control
# T42 construct: purchased Millipore KinaseProfiler (kinases); Cerep (receptors and ion channels)
# T1 sequence (P30542 whole entry): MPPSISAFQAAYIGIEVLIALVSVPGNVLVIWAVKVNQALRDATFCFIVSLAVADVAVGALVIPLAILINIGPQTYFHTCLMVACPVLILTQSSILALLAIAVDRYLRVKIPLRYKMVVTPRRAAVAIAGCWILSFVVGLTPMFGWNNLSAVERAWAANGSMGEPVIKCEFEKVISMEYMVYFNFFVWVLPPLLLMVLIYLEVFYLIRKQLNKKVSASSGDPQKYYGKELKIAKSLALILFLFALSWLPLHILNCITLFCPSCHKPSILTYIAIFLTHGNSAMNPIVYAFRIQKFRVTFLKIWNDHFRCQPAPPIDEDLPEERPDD
smiles,measurement,setting,value
"O=C1NCCC12CCN(c1c(Cl)cncc1-c1ccc(N3CCOCC3)cc1)CC2 [Compound 44, 8-(3-Chloro-5-(4-morpholin-4-ylphenyl)pyridin-4-yl)-2,8-diazaspiro[4.5]decan-1-one]",inhibition at 10 µM,A1 (h),-11%
same,inhibition at 10 µM,A2A (h),4%
same,inhibition at 10 µM,D2S (h),9%
same,inhibition at 10 µM,MC4 (h),10%
same,inhibition at 10 µM,M3 (h),47%
same,inhibition at 10 µM,Y1 (h),-10%
same,inhibition at 10 µM,5-HT1A (h),11%
same,inhibition at 10 µM,5-HT1B,-29%
same,% Inhibition of Control Specific Binding,sst (non-selective),-16%
same,% Inhibition of Control Specific Binding,[1],9%
same,remaining activity at 1 µM,CDK2/CYCLINA,-9%
same,remaining activity at 1 µM,DAPK1,0%
same,remaining activity at 1 µM,DAPK2,5%
same,remaining activity at 1 µM,EGFR,5%
same,remaining activity at 1 µM,EPHA5,11%
same,remaining activity at 1 µM,EPHB1,-1%
same,remaining activity at 1 µM,FLT3,-7%
same,remaining activity at 1 µM,HIPK1,7%
same,remaining activity at 1 µM,IRAK4,2%
same,remaining activity at 1 µM,JAK3,-4%
same,remaining activity at 1 µM,JNK1ALPHA1,0%
same,remaining activity at 1 µM,MET,-14%
same,remaining activity at 1 µM,MRCKALPHA,11%
same,remaining activity at 1 µM,MST3,34%
same,remaining activity at 1 µM,NEK2,3%
same,remaining activity at 1 µM,NEK7,-7%
same,remaining activity at 1 µM,NLK,17%
same,remaining activity at 1 µM,PKG1ALPHA,8%
same,remaining activity at 1 µM,PKD2,0%
same,remaining activity at 1 µM,PRAK,-8%
same,remaining activity at 1 µM,PRKX,1%
same,remaining activity at 1 µM,CRAF,-1%
same,remaining activity at 1 µM,RIPK2,3%
same,remaining activity at 1 µM,RSK2,3%
same,remaining activity at 1 µM,SAPK2A,-1%
same,remaining activity at 1 µM,ZAP-70,13%
same,remaining activity at 1 µM,ZIPK,-10%
same,remaining activity at 1 µM,GRK5,0%
same,remaining activity at 1 µM,HASPIN,21%
same,remaining activity at 1 µM,TAO3,-22%
same,remaining activity at 1 µM,TAO1,-2%
same,remaining activity at 1 µM,"IR, ACTIVATED",17%
same,remaining activity at 1 µM,PRKAA1,15%
same,remaining activity at 1 µM,AURKB,-1%
